The values below come from patent publication US7569724B2, “Carbamic acid compounds comprising an amide linkage as HDAC inhibitors” (Topotarget UK Limited, priority 2000, dated 2009).

Structures can show the parent of a compound that is named as a salt. Where two headings read alike, the source gives them in different places. A value given as a limit tells only on which side of the number the result lay.

Data set [1] deals with HDAC (HeLa cell extract). In words: Primary assay: deacetylase activity, HeLa cell extract as source of HDAC. It counts as biochemical, human. The settings on record: HeLa cell extract; for HDAC Inhibition HeLa, percent / percent HDAC inhibition at the stated concentration: @ 500 nM. From the text: Briefly, this assay relies on the release of radioactive acetate from a radioactively labelled histone fragment by the action of HDAC enzyme. Test compounds, which inhibit HDAC, reduce the yield of radioactive acetate. Signal (e.g., scintillation counts) measured in the presence and absence of a test compound provide an indication of that compound's ability to inhibit HDAC activity. Decreased activity indicates increased inhibition by the test compound.
The histone fragment was an N-terminal sequence from histone H4, and it was labelled with radioactively labelled acetyl groups using tritiated acetylcoenzyme A (coA) in conjunction with an enzyme which is the histone acetyltransferase domain of the transcriptional coactivator p300. […] The acetylated peptide was then separated from free acetyl coA by size exclusion chromatography on Sephadex G-15 (Sigma G-15-120), using distilled H2O as the mobile phase.
After purification of the radiolabelled histone fragment, it was incubated with a source of HDAC (e.g., an extract of HeLa cells (a rich source of HDAC), recombinantly produced HDAC1 or HDAC2) and any released acetate was extracted into an organic phase and quantitatively determined using scintillation counting. By including a test compound with the source of HDAC, that compound's ability to inhibit the HDAC was determined.
The HeLa cell extract was made from HeLa cells (ATCC Ref. No. CCL-2) by freeze-thawing three times in 60 mM TrisCl pH 8.0, 450 mM NaCl, 30% glycerol. Two cell volumes of extraction buffer were used, and particulate material was centrifuged out (20800 g, 4° C., 10 min). The supernatant extract having deacetylase activity was aliquotted and frozen for storage.
A source of HDAC (e.g., 2 μL of crude HeLa extract, 5 μL of HDAC1 or HDAC2; in elution buffer, as above) was incubated with 3 μL of radioactively labelled peptide along with appropriate dilutions of candidate compounds (1.5 μL) in a total volume of 150 μL of buffer (20 mM Tris pH 7.4, 10% glycerol). The reaction was carried out at 37° C. for one hour, after which the reaction was stopped by adding 20 μL of 1 M HCl/0.4 M sodium acetate. […] Radioactivity was measured using a Tri-Carb 2100TR Liquid Scintillation Analyzer (Packard).
Percent activity (% activity) for each test compound was calculated as: % activity={(S^C−B)/(S^o−B)}×100 wherein S^C denotes signal measured in the presence of enzyme and the compound being tested, S^o denotes signal measured in the presence of enzyme but in the absence of the compound being tested, and B denotes the background signal measured in the absence of both enzyme and compound being tested.

The test system of data set [2] is HeLa cells. In words: Secondary assay: cell proliferation WST-1, HeLa. The class given is cell-based. As to conditions: Homo sapiens, 48 h, read-out: Cell Proliferation Inhibition WST-1 (IC50 unless otherwise specified) HeLa. On the procedure:
Compounds with HDAC inhibition activity, as determined using the primary assay, were subsequently evaluated using secondary cell-based assays. The following cell lines were used:
HeLa—Human cervical adenocarcinoma cell line (ATCC ref. No. CCL-2).
Cells were plated in 96-well plates at 3-10×10^3 cells/well in 100 μL of culture medium. The following day, different concentrations of candidate compounds were added and the cells incubated at 37° C. for 48 h. Subsequently, 10 μL/well of WST-1 reagent was added and the cells reincubated for 1 hour. After the incubation time, absorbance was measured.
WST-1 is a tetrazolium salt which is cleaved to formazan dye by cellular enzymes. An expansion in the number of viable cells results in an increase in the overall activity of mitochondrial dehydrogenases in the sample. This augmentation in the enzyme activity leads to an increase in the amount of formazan dye formed, which directly correlates to the number of metabolically active cells in the culture. The formazan dye produced is quantified by a scanning multiwell spectrophotometer by measuring the absorbance of the dye solution at 450 nm wavelength (reference wavelength 690 nm).
Percent activity (% activity) in reducing the number of viable cells was calculated for each test compound as: % activity={(S^C−B)/(S^o−B)}×100 wherein S^C denotes signal measured in the presence of the compound being tested, S^o denotes signal measured in the absence of the compound being tested, and B denotes the background signal measured in blank wells containing medium only.
IC50 values were calculated using the software package Prism 3.0 (GraphPad software Inc., San Diego, Calif.), setting top value at 100 and bottom value at 0.
A general note: Formazan colour is commonly taken as a measure of viable cells.

Setting [3] is: read-out: HDAC Inhibition (IC50 unless otherwise specified) HeLa.
Where [4] appears, read: comparative tables, read-out: HeLa IC50.

Regarding `O=C(/C=C/c1ccncc1)NCCCCCC(=O)NO` (as salt: oxalate) [PX106521, (E)-N-(5-Hydroxycarbamoylpentyl)-3-pyridin-4-yl-acrylamide oxalate], the melting point was 168 to 170 °C.
Turning to `O=C(CCCCCCC(=O)NCc1cccc2ccccc12)NO` [PX117459, Octanedioic acid hydroxyamide (naphthalen-1-ylmethyl)-amide], the melting point was 141 to 143 °C. Further, the “HDAC Inhibition HeLa, percent” value in data set [1] was determined as 63% @ 500 nM.
As to `C/C(=C\C(=O)NCCCCCC(=O)NO)c1ccccc1` [PX117254, E-3-Phenylbut-2-enoic acid (5-hydroxycarbamoylpentyl)-amide], the values for the IC50 in data set [2] and in data set [1] (setting [3]) were 6.6 µM and 40 nM, respectively.
On to `COc1ccc(/C=C/C=C/C(=O)NCCCCCC(=O)NO)cc1` [PX106524, (2E,4E)-(4-Methoxyphenyl)penta-2,4-dienoic acid (5-hydroxycarbamoylpentyl)-amide], for which the melting point lay within 152 to 154 °C. In data set [1], the “HDAC Inhibition HeLa, percent” value came to 57% @ 500 nM.
On to `COc1ccc(C(=O)NCCCCCC(=O)NO)cc1OC` [PX116213, N-[6-(Hydroxyamino)-6-oxohexyl]-3,4-dimethoxybenzamide], for which the melting point came out at 133 °C. Moreover, the “HDAC Inhibition HeLa, percent” value in data set [1] is reported as 48% @ 500 nM.
`O=C(CCCCCNC(=O)Cc1ccc(-c2ccccc2)cc1)NO` [PX106488, 6-(2-Biphenyl-4-yl-acetylamino)-hexanoic acid hydroxyamide]: the melting point was in the range of 226 to 227 °C. Besides, the “HDAC Inhibition HeLa, percent” value in data set [1] amounted to 51% @ 500 nM. Moreover, the “percent HDAC inhibition at the stated concentration” value (shortened to “percent HDAC inhibition”) in data set [1] (comparative tables) turned out to be 51% @ 500 nM.
Take `O=C(/C=C/C=C/c1ccccc1Cl)NCCCCCC(=O)NO` [PX117255, (2E)(4E)-5-(2-Chlorophenyl)penta-2,4-dienoic acid (5-hydroxycarbamoylpentyl)amide]: the values for the IC50 in data set [2] and in data set [1] (setting [3]) were 18 µM and 50 nM, respectively.
Regarding `O=C(CCCCCNC(=O)c1ccc(Br)cc1)NO` [PX116215, 4-Bromo-N-(5-hydroxycarbamoyl-pentyl)-benzamide], the melting point fell in the range of 164 to 166 °C. For the same compound, in data set [1], the “HDAC Inhibition HeLa, percent” value is given as 70% @ 500 nM.
Compound `O=C(CCCCC(=O)NCCc1c[nH]c2ccccc12)NO` [PX116217, Hexanedioic acid hydroxyamide [2-(1H-indol-3-yl)-ethyl]-amide] gave a melting point of 121 to 122.5 °C. In data set [1], the “HDAC Inhibition HeLa, percent” value was determined as 17% @ 500 nM.
Compound `O=C(CCCCCNC(=O)c1ccc(I)cc1)NO` [PX106494, N-(5-Hydroxycarbamoylpentyl)-4-iodobenzamide] displayed a melting point of 168 to 169 °C. In addition, the IC50 in data set [1] (setting [3]) was 100 nM.
Regarding `CN(C)c1ccc(CC(=O)NCCCCCC(=O)NO)cc1` [PX117458, 6-[2-(4-Dimethylamino-phenyl)-acetylamino]-hexanoic acid hydroxyamide], the melting point was in the range of 124 to 126 °C. In data set [1], the “HDAC Inhibition HeLa, percent” value is recorded as 9% @ 500 nM. The “percent HDAC inhibition” value in data set [1] (comparative tables) was determined as 9% @ 500 nM.
For `CN(C)c1ccc(C(=O)NCCCCCC(=O)NO)cc1` [PX089274, 4-Dimethylamino-N-(5-hydroxycarbamoyl-pentyl)-benzamide], the IC50 in data set [2] was 4.4 µM; in data set [1] (setting [3]), 109 nM; in data set [1] (setting [4]), 110 nM.
Compound `O=C(CCCCCCC(=O)NCCc1cccc2ccccc12)NO` [PX116224, Octanedioic acid hydroxyamide (2-naphthalen-1-yl-ethyl)-amide] showed a melting point of 120 to 121.5 °C. The “HDAC Inhibition HeLa, percent” value in data set [1] is on record as 78% @ 500 nM.
With `O=C(CCCCCNC(=O)C/C=C/c1ccccc1)NO` [PX116211, (E)-N-[6-(Hydroxyamino)-6-oxohexyl]-4-phenyl-3-butenamide], the melting point lay within 127 to 128 °C.
`O=C(CCCCCCC(=O)NCCc1nc2ccccc2[nH]1)NO` [PX116241, N^1-[2-(1H-Benzimidazol-2-yl)ethyl]-N^8-hydroxyoctanediamide]: in data set [2], the IC50 turned out to be 56 µM. In addition, the “HDAC Inhibition HeLa, percent” value in data set [1] is recorded as 39% @ 500 nM.
On to `O=C(CCCCCCC(=O)NCc1ccccc1)NO` [PX117418, Octanedioic acid benzylamide hydroxyamide], for which the melting point was 126 to 126.5 °C. Besides, in data set [1], the “HDAC Inhibition HeLa, percent” value is 39% @ 500 nM.
In turn, `O=C(CCCCCNC(=O)CCc1ccco1)NO` [PX105827, 6-(3-Furan-2-yl-propionylamino)-hexanoic acid hydroxyamide] gave a melting point of 127 to 128 °C. For the same compound, the “HDAC Inhibition HeLa, percent” value in data set [1] amounted to 34% @ 500 nM. For the same compound, in data set [1] (comparative tables), the “percent HDAC inhibition” value is 34% @ 500 nM.
Compound `O=C(CCCCCNC(=O)c1ccc([N+](=O)[O-])cc1)NO` [PX106495, N-(5-Hydroxycarbamoylpentyl)-4-nitrobenzamide] yielded a melting point of 139.5 to 141 °C. Besides, the “HDAC Inhibition HeLa, percent” value in data set [1] worked out at 34% @ 500 nM.
`O=C(CCCCCNC(=O)Cc1csc2ccccc12)NO` [PX117442, 6-(2-Benzothiophen-3-yl-acetylamino)-hexanoic acid hydroxyamide] registered a melting point of 113 to 115 °C. Moreover, the “HDAC Inhibition HeLa, percent” value in data set [1] came to 31% @ 500 nM.
In turn, `O=C(CCCCCNC(=O)CCc1ccccc1)NO` [PX106516, 6-(3-Phenylpropionylamino)hexanoic acid hydroxyamide] returned a melting point of 107 °C. Moreover, the “HDAC Inhibition HeLa, percent” value in data set [1] is reported as 27% @ 500 nM.
As for `O=C(/C=C/c1ccccc1)NCCCCCC(=O)NO` [PX106517, N-(5-Hydroxycarbamoylpentyl)-3-phenylacrylamide], the IC50 worked out at 0.47 µM in data set [2], 83 nM in data set [1] (setting [3]) and 83 nM in data set [1] (setting [4]).
For the compound `O=C(/C=C/c1ccccn1)NCCCCCC(=O)NO` (as salt: oxalate) [PX106528, (E)-N-(5-Hydroxycarbamoylpentyl)-3-pyridin-2-yl-acrylamide oxalate], the melting point was in the range of 126 to 128 °C.
As to `O=C(/C=C/c1ccncc1)NCCCCCC(=O)NO` [PX106521, (E)-N-(5-Hydroxycarbamoylpentyl)-3-pyridin-4-yl-acrylamide oxalate], the IC50 in data set [2] was found to be 46 µM; in data set [1] (setting [3]) it was 138 nM.
As for `O=C(/C=C/c1ccc(-c2cc(C(F)(F)F)cc(C(F)(F)F)c2)o1)NCCCCCC(=O)NO` [PX117224, (E)-3-{5-[3,5-bis(trifluoromethyl)phenyl]-2-furyl}-N-[6-(hydroxyamino)-6-oxohexyl]2-propenamide], the IC50 in data set [2] is 26 µM. Further, the “HDAC Inhibition HeLa, percent” value in data set [1] stood at 81% @ 500 nM.
Take `O=C(/C=C/c1cccnc1)NCCCCCC(=O)NO` (as salt: oxalate) [PX116231, E-N-(5-Hydroxycarbamoyl-pentyl)-3-pyridin-3-yl-acrylamide oxalate]: the melting point lay in the range of 157 to 159 °C.
Consider `Cn1cccc1/C=C/C(=O)NCCCCCC(=O)NO` [PX117239, E-3-(1-Methyl-1H-pyrrol-2-yl)-N-(5-hydroxycarbamoylpentyl)-acrylamide], for which the IC50 in data set [2] was 10 µM. Besides, in data set [1], the “HDAC Inhibition HeLa, percent” value is listed as 85% @ 500 nM.
On to `O=C(/C=C/c1ccc(NC(=O)Cc2cccc3ccccc23)cc1)NO` [PX116244, (E)-N-Hydroxy-3-(4-{[2-(1-naphthyl)acetyl]amino}phenyl)-2-propenamide], for which the figures for the IC50 in data set [2] and in data set [1] (setting [3]) were below 0.31 µM and 22 nM, respectively.

What is called melting point is the temperature, or range, at which the solid turns liquid.
